Test results taken from patent US6566334B1, “Short amphipathic peptides with activity against bacteria and intracellular pathogens” (priority 1997, dated 2003).
Where a SMILES comes first, the peptide text is derived from it. [ ]: non-standard residue; d: D form. Ac6c = NC1(C(=O)O)CCCCC1; Api = NC1(C(=O)O)CCNCC1; Aib = CC(C)(N)C(=O)O

What was measured:
[1] = test system: Escherichia coli, ATCC 25922; details: for Peptide minimum inhibitory concentration, E. coli: MIC after 4 h, median of 3-7 tests, corrected for actual peptide concentration
[2] = test system: Staphylococcus aureus, ATCC 25723; details: for Peptide minimum inhibitory concentration, S. aureus: MIC after 4 h, median of 3-7 tests, corrected for actual peptide concentration
[3] = test system: Normal murine macrophages; details: 10 μM
[4] = in vitro; details: BALB/c, mouse, normal (non-infected) primary murine peritoneal macrophages, Normal Macrophage Survival Rate
[5] = target: trypsin (Sus scrofa, UniProt P00761); assay: Resistance to trypsin, E. coli MIC assay after trypsin incubation; details: trypsin 20 min at 37° C., then MIC assay with E. coli
trypsin, sequence (P00761 9-231): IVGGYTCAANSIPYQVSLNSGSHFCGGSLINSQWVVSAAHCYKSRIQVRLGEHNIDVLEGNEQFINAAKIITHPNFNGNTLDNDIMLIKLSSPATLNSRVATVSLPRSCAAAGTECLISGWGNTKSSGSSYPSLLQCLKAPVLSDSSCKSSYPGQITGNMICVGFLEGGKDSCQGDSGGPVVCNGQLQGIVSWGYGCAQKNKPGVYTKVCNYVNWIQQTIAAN

[6] = test system: B. abortus infected BALB/c mice; details: mouse, in vivo
[7] = Circular dichroism (CD) in SDS micelles, percent helicity; format: physicochemical
[8] = test system: B. abortus strain 2308; set-up: species or system BALB/c mice; details: mouse, in vivo; for % Bacterial Reduction: iv
[9] = Solubility in water; details: without any organic modifier present
[10] = test system: Murine macrophages infected with virulent B. abortus, strain 2308; format: cell-based, BALB/c mice

Row | Compound | Peptide minimum inhibitory concentration, E. coli [1] | Peptide minimum inhibitory concentration, S. aureus [2] | viability at 1 h, 0.1 µM [4] | viability at 1 h, 1 µM [4] | viability at 1 h, 10 µM [4] | viability at 1 h, 50 µM [4] | Effect of incubation with trypsin on antibacterial activity [5] | Stress or death of infected mice after treatment [6] | also measured
1 | CC(C)(NC(=O)C(C)(C)NC(=O)[C@H](CCCCN)NC(=O)[C@H](CCCCN)NC(=O)C(C)(C)NC(=O)C(C)(C)NC(=O)[C@H](CCCCN)NC(=O)C(C)(C)NC(=O)C(C)(C)NC(=O)[C@H](CCCCN)NC(=O)[C@@H](N)CCCCN)C(N)=O [Ai-11, H—LysLysAibAibLysAibAibLysLysAibAib—NH2] (H-KK[Aib][Aib]K[Aib][Aib]KK[Aib][Aib]-NH2) | 55 µM | >220 µM | 88% | 89% | 81% | 56.6% | did not decrease antibacterial activity | – | Effect of peptide treatment on normal macrophages (in words) [3]: small effect
2 | CC(=O)N[C@@H](CCCCN)C(=O)N[C@@H](CCCCN)C(=O)NC(C)(C)C(=O)NC(C)(C)C(=O)N[C@@H](CCCCN)C(=O)NC(C)(C)C(=O)NC(C)(C)C(=O)N[C@@H](CCCCN)C(=O)N[C@@H](CCCCN)C(=O)NC(C)(C)C(=O)NC(C)(C)C(N)=O [Ai-11-ac, Ac—LysLysAibAibLysAibAibLysLysAibAib—NH2] (Ac-KK[Aib][Aib]K[Aib][Aib]KK[Aib][Aib]-NH2) | 6.6 µM | 212 µM | 92% | 82% | 86% | 58.5% | did not decrease antibacterial activity | – | Effect of peptide treatment on normal macrophages (in words) [3]: small effect
3 | CC(C)(NC(=O)C(C)(C)NC(=O)[C@H](CCCCN)NC(=O)[C@H](CCCCN)NC(=O)C(C)(C)NC(=O)C(C)(C)NC(=O)[C@H](CCCCN)NC(=O)C(C)(C)NC(=O)C(C)(C)NC(=O)[C@H](CCCCN)NC(=O)[C@H](CCCCN)NC(=O)C(C)(C)NC(=O)C(C)(C)NC(=O)[C@@H](N)CCCCN)C(N)=O [Ai-14, H—LysAibAibLysLysAibAibLysAibAibLysLysAibAib—NH2] (H-K[Aib][Aib]KK[Aib][Aib]K[Aib][Aib]KK[Aib][Aib]-NH2) | 5.5 µM | 11 µM | 91% | 88% | 88% | 57% | did not decrease antibacterial activity | – | –
4 | NCCCC[C@H](NC(=O)[C@H](CCCCN)NC(=O)C1(NC(=O)C2(NC(=O)[C@H](CCCCN)NC(=O)C3(NC(=O)C4(NC(=O)[C@H](CCCCN)NC(=O)[C@@H](N)CCCCN)CCCCC4)CCCCC3)CCCCC2)CCCCC1)C(=O)NC1(C(N)=O)CCCCC1 [Ch-10, H—LysLysChChLysChChLysLysCh—NH2] (H-KK[Ac6c][Ac6c]K[Ac6c][Ac6c]KK[Ac6c]-NH2) | 5.7 µM | 2.8 µM | – | – | – | – | did not decrease antibacterial activity | died immediately after treatment | Survival of infected mice after treatment [6]: lived
5 | NCCCC[C@H](NC(=O)[C@H](CCCCN)NC(=O)C1(NC(=O)C2(NC(=O)[C@H](CCCCN)NC(=O)C3(NC(=O)C4(NC(=O)[C@H](CCCCN)NC(=O)[C@@H](N)CCCCN)CCCCC4)CCCCC3)CCCCC2)CCCCC1)C(=O)NC1(C(=O)NC2(C(N)=O)CCCCC2)CCCCC1 [Ch-11, H—LysLysChChLysChChLysLysChCh—NH2] (H-KK[Ac6c][Ac6c]K[Ac6c][Ac6c]KK[Ac6c][Ac6c]-NH2) | 5.2 µM | 2.6 µM | – | – | – | – | – | – | –
6 | NCCCC[C@H](NC(=O)[C@H](CCCCN)NC(=O)C1(NC(=O)C2(NC(=O)[C@H](CCCCN)NC(=O)C3(NC(=O)C4(NC(=O)[C@H](CCCCN)NC(=O)[C@H](CCCCN)NC(=O)C5(NC(=O)C6(NC(=O)[C@@H](N)CCCCN)CCCCC6)CCCCC5)CCCCC4)CCCCC3)CCCCC2)CCCCC1)C(=O)NC1(C(N)=O)CCCCC1 [Ch-13, H—LysChChLysLysChChLysChChLysLysCh—NH2] (H-K[Ac6c][Ac6c]KK[Ac6c][Ac6c]K[Ac6c][Ac6c]KK[Ac6c]-NH2) | 6.5 µM | 2.2 µM | – | – | – | – | did not decrease antibacterial activity | died immediately after treatment | Survival of infected mice after treatment [6]: lived
7 | CC(C)(NC(=O)[C@H](CCCCN)NC(=O)C(C)(C)NC(=O)C(C)(C)NC(=O)C1(N)CCNCC1)C(=O)NC(C)(C)C(=O)N[C@@H](CCCCN)C(=O)NC(C)(C)C(=O)NC(C)(C)C(=O)NC1(C(N)=O)CCNCC1 [Ipi-10, H—ApiAibAibLysAibAibLysAibAibApi—NH2] (H-[Api][Aib][Aib]K[Aib][Aib]K[Aib][Aib][Api]-NH2) | – | – | – | – | – | – | did not decrease antibacterial activity | did not die, but showed physiological signs of stress | 222/206 intensity ratio (CD) ([7]; in the presence of SDS micelles): 0.32; % Bacterial Reduction [8]: 55%; Solubility in water [9]: readily soluble in water
8 | CC(=O)NC1(C(=O)NC(C)(C)C(=O)NC(C)(C)C(=O)N[C@@H](CCCCN)C(=O)NC(C)(C)C(=O)NC(C)(C)C(=O)N[C@@H](CCCCN)C(=O)NC(C)(C)C(=O)NC(C)(C)C(=O)NC2(C(N)=O)CCNCC2)CCNCC1 [Ipi-10-ac, Ac—ApiAibAibLysAibAibLysAibAibApi—NH2] (Ac-[Api][Aib][Aib]K[Aib][Aib]K[Aib][Aib][Api]-NH2) | – | – | – | – | – | – | – | did not die, but showed physiological signs of stress | –
9 | CC(C)(N)C(=O)NC(C)(C)C(=O)NC1(C(=O)N[C@@H](CCCCN)C(=O)NC(C)(C)C(=O)NC(C)(C)C(=O)NC2(C(=O)N[C@@H](CCCCN)C(=O)NC(C)(C)C(=O)NC(C)(C)C(N)=O)CCNCC2)CCNCC1 [Pi-10, H—AibAibApiLysAibAibApiLysAibAib—NH2] (H-[Aib][Aib][Api]K[Aib][Aib][Api]K[Aib][Aib]-NH2) | – | – | 95% | 89% | 90% | 68% | did not decrease antibacterial activity | – | % Helicity (% α helix) ([7]; CD, 25 mM SDS micelles, 100-200 μM peptide): 43%; Reduction of bacterial load compared to controls (in words) [8]: significantly reduced bacterial load; % Bacterial Reduction [8]: 90%; Infected Macrophage Survival Rate [10]: 55.0 ± 1.00; Antibacterial activity against E. coli (in words) [1]: good antibacterial activity; Antibacterial activity against S. aureus (in words) [2]: moderate activity; Solubility in water [9]: readily soluble in water
10 | CC(=O)NC(C)(C)C(=O)NC(C)(C)C(=O)NC1(C(=O)N[C@@H](CCCCN)C(=O)NC(C)(C)C(=O)NC(C)(C)C(=O)NC2(C(=O)N[C@@H](CCCCN)C(=O)NC(C)(C)C(=O)NC(C)(C)C(N)=O)CCNCC2)CCNCC1 [Pi-10-ac, Ac—AibAibApiLysAibAibApiLysAibAib—NH2] (Ac-[Aib][Aib][Api]K[Aib][Aib][Api]K[Aib][Aib]-NH2) | – | – | 92% | 89% | 88% | 49% | – | died immediately after treatment | –
11 | H-GIGKFLHSAKKFGKAFVGEIMNS-OH [magainin 2, reference compound] | – | – | – | – | – | – | destroyed antibacterial activity | – | –
12 | H-KAAKKAAKAAKKAA-NH2 [Al-14, H—LysAlaAlaLysLysAlaAlaLysAlaAlaLysLysAlaAla—NH2, reference compound] | >178 µM | >178 µM | – | – | – | – | – | – | % Bacterial Reduction [8]: −6%
13 | H-KWKVFKKIEKMGRNIRNGIVKAGPAIAVLGEAKAL-NH2 [cecropin B, reference compound] | – | – | – | – | – | – | destroyed antibacterial activity | – | –
